Results: patent EP0727211A1, “Use of src SH2 specific compounds to treat a bone resorption disease” (SMITHKLINE BEECHAM CORPORATION, priority 1995, dated 1996)

Biological target: T1, human SH-PTP2 SH2 domain (Homo sapiens, UniProt Q06124)
T1 construct: SH2 domain of human SH-PTP2 (amino acids 1-106); made in house; host or cells: E. coli (pGEX-2T)
T1 sequence (Q06124 1-106): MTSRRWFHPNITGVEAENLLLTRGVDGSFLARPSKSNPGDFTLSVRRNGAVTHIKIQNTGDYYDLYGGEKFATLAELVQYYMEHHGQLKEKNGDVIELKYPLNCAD
Test: SH2 domain / pY peptide binding assay (ELISA-based, 96 well plate), SH-PTP2 SH2
Conditions: for Ki: Ki calculated from IC50 by the expanded equation, Table II; for IC50: cloned human SH2 domain fusion protein, 0.1 uM biotinylated pY peptide, Table I
Method: The inhibitory activity of compounds at the different human SH2 domains was determined in vitro using SH2 domains expressed as fusion proteins in E. coli. The SH2 domains used herein were the human forms of the src SH2 domain, Grb2 SH2 domain, lck SH2 domain, fyn SH2 domain, SH-PTP2 SH2 domain, p85 SH2 domain and hcp SH2 domain.
Fusion proteins having the structure GST-X-SH2 were prepared as described in the GST gene fusion kit system available from Pharmacia (New Jersey). GST is the tagging sequence glutathione s-transferase epitope (SEQ ID NO: 8) for fyn, Grb2 and SH-PTP2 and is the tagging sequence glutathione s-transferase epitope (SEQ ID NO: 9) for p85. SH2 refers to the SH2 domains of fyn, Grb2, p85 and SH-PTP2 which were expressed and purified using glutathione Sepharose 4B (Pharmacia) according to "Current Protocols in Molecular Biology", ed. FM Ausubel et al., pub. John Wiley and Sons, Inc., (1995), p 16.7.1. X is an appropriate linker, preferably of 6 to 21 base pairs, used to keep the SH2 construct in frame and complement cloning. As such, the sequence of X is not critical. One skilled in the art can readily construct the appropriate linker. The DNA sequence encoding each GST-X-SH2 fusion protein was designed such that the indicated restriction sites (BamH1 and EcoRI) flank the SH2 region. The vector used in the instant experiments was the E. coli expression vector pGEX-2T (Pharmacia) for fyn, Grb2 and SH-PTP2, and pGEX-3X (Pharmacia) for p85. Each of these vectors result in SH2 constructs having additional C-terminal amino acids as described below.
Human SH-PTP2 SH2 domain: The sequence encoding the SH2 domain of human SH-PTP2 (amino acids 1-106))(Bastien, L. et al., Biochem. Biophys. Res. Commun. 196, 124-133 (1993)) was cloned into the BamHI and EcoRI sites of the expression vector pGEX-2T. The SH2 domain including the additional C-terminal amino acids glutamine-phenylalanine-isoleucine-valine-threonine-aspartate (SEQ ID NO: 12) was cloned by PCR techniques known to those skilled in the art to yield the expressed fusion protein GST-X-SH-PTP2.
The binding assays for the SH2 domains and pY peptides were performed in an ELISA-based 96 well plate assay. In Millipore 96 well filter plates, hydrophilic Durapore® (pore size 0.65um Cat. No. MADVN6550), was added 2 ul (50% suspension) of Protein-G Sepharose (available from Pharmacia of N.J. Cat. No. 17-0618-01) and either 2 ul of 2 mg/ml of MAB178. (for gp120/SH2 domain fusion proteins src, lck and hcp) or 0.25 ul of anti-GST polyclonal antisera (available from Pharmacia of N.J.) (for GST/SH2 domain fusion proteins fyn, Grb2, p85 and SH-PTP2). 10 pmol of the subject SH2 domain fusion protein were added to their respective wells. The volume was brought to 100 ul with TBS-T (tris buffered saline plus 0.05% tween-20), incubated and shaken at room trmperature for 1 hr. then washed 1x with TBS-T (4°C). 90 ul of TBS-T were then added to each well. Specific pY biotinylated peptides were diluted to a concentration of 1.0 uM in TBS-T (these peptides can be obtained from Bachem Bioscience of Pennsylvania, Genosys Biotechnologies of Texas and California Peptide Research of California). 10 ul was aliquoted per well to yield a final concentration of 0.1 uM (approx, the Kd for each SH2 domain/peptide pair) and a final volume of 100 ul. The assay plates were incubated until equilibrium binding was attained (3 hr at 4°C with shaking). The assay plates were washed 2 X per well TBS-T (4°C), then 100 ul of SABC (Strepavidin biotinylated horseradish peroxidase complex, available from the Zymed corporation of California cat. no. 93-0043, 1 drop reagent A (streptavidin) and 1 drop of reagent B (AH-biotin conjugated-horseradish peroxidase) per 10 ml of TBS-T, incubated at 37°C for 30 minutes, then cooled to 4°C) was added per well, then incubated at 4°C for 30-60 minutes. The plates were then washed 4 X with TBS-T (4°C) (250 ul/well)/wash). […]

Row | Compound | Ki | IC50
1 | 4-acetamido-benzamido-trans-4-methyl-cyclohexyl-N-1-(amino-R-2-(methoxy methyl)-pyrrolidine) carboxamide [Compound 8] | > 1000 µM | > 300 µM
2 | Cc1nnc(SCC2=C(C(=O)O)N3C(=O)[C@@H](NC(=O)C(N)c4ccc(C(=O)O)cc4)[C@H]3SC2)s1 (stereo partly drawn) [Compound 1, 7-[D,L-α-Amino-α-(4-carboxyphenyl)acetamido]-3-[2-(5-methyl-1,3,4-thiadiazolyl)thiomethyl]Δ^3-cephem-4-carboxylic Acid] | > 1000 µM | > 300 µM
3 | N[C@@H](Cc1cc(Br)c(Oc2ccc(O)c(Cc3ccc(O)nn3)c2)c(Br)c1)C(=O)O [Compound 2, L-3,5-Dibromo-3'-(6-oxo-3(1H)-pyridazinylmethyl)-thyronine] | > 1000 µM | > 300 µM
4 | Cc1nc2sc3c(c2c2[nH][nH]c(=O)c12)CCC1(C3)OCCO1 [Compound 3, 8,8-Ethylenedioxy-2,3,7,8,9,10-hexahydro-4-methyl-1H-benzo[b]thieno[2,3-b]pyrazolo[3,4-d]pyridin-3-one] | > 1000 µM | > 300 µM
5 | Cc1nc2sc3c(c2c2c1c(=O)[nH]n2C)CCC1(C3)OCCO1 [Compound 5, 1,4-Dimethyl-8,8-ethylenedioxy-2,3,7,8,9,10-hexahydro-1H-benzo[b]thieno[2,3-b]pyrazolo[3,4-d]pyridin-3-one] | > 1000 µM | > 300 µM
6 | CCCCCCNC(=O)[C@H]1CC[C@H](CNC(=O)c2ccc([N+](=O)[O-])cc2)CC1 [Compound 7, 4-nitro-benzamido-trans-4-methyl-cyclohexyl-N-hexyl carboxamide] | > 1000 µM | > 300 µM
7 | CCCNC(=O)[C@H]1CC[C@H](CNC(=O)/C=C/c2ccc(C=O)cc2)CC1 [Compound 9, 4-formyl-E-cinnamido-trans-4-methyl-cyclohexyl-N-(propyl) carboxamide] | > 1000 µM | > 300 µM
8 | Cc1nc2sc3c(c2c2[nH][nH]c(=O)c12)CCCC3 [Compound 10, 2,3,7,8,9,10-Hexahydro-4-methyl-1H-benzo[b]thieno[2,3-b]pyrazolo[3,4-d]pyridin-3-one] | > 1000 µM | > 300 µM
